Species: Rattus norvegicus
Experiment: Open TG-GATES - Regimen: Daily Repeat
Format: toxicity, organism-based, Sprague-Dawley
Design: regimen Daily Repeat, gender Male, age 6 weeks
Conditions: in vivo, po, 20 mg/kg, route gavage, dose level Low; for Eos / Fbg / Hb / Ht / MCHC / MCV / Mono / Neu / Plat / RBC / Ret / WBC / Bas: tissue Blood; for KIDNEY_L / KIDNEY_R / KIDNEY_TOTAL: tissue Kidney; for LIVER: tissue Liver; for ALP / AST / BUN / CRE / DBIL / GLC / IP / K / LDH / Na / RALB / TBIL / TC / TG / TP / gamma-GTP / PL: tissue Plasma

`CO[C@H]1/C=C/O[C@@]2(C)Oc3c(C)c(O)c4c(O)c(c(/C=N/N5CCN(C)CC5)c(O)c4c3C2=O)NC(=O)/C(C)=C\C=C\[C@H](C)[C@H](O)[C@@H](C)[C@@H](O)[C@@H](C)[C@H](OC(C)=O)[C@@H]1C` [RIFAMPIN] showed an Eos (72 h, time 3 day) of 0.8%, a Fbg (72 h, time 3 day) of 239.4 mg/dL and a Hb (72 h, time 3 day) of 14 g/dL. It also gave a Ht (72 h, time 3 day) of 42.3%, an MCHC (72 h, time 3 day) of 33% and an MCV (72 h, time 3 day) of 62.8 fL. It also gave a Mono (72 h, time 3 day) of 8%, a Neu (72 h, time 3 day) of 7.2% and a Plat (72 h, time 3 day) of 125.9 x10_4/uL. For the same compound, the RBC (72 h, time 3 day) was 673.8 x10_4/ul, the Ret (72 h, time 3 day) was 5.5% and the WBC (72 h, time 3 day) was 119.2 x10_2/uL. The KIDNEY_L (72 h, time 3 day) was 1 g, the KIDNEY_R (72 h, time 3 day) was 1 g and the KIDNEY_TOTAL (72 h, time 3 day) was 2 g. The LIVER (72 h, time 3 day) was 10.7 g, the ALP (72 h, time 3 day) was 787.6 IU/L and the AST (72 h, time 3 day) was 66.8 IU/L. It also gave a BUN (72 h, time 3 day) of 16 mg/dL, a CRE (72 h, time 3 day) of 0.5 mg/dL and a DBIL (72 h, time 3 day) of 0.002 mg/dL. For the same compound, the GLC (72 h, time 3 day) was 194.8 mg/dL, the IP (72 h, time 3 day) was 8.8 mg/dL and the K (72 h, time 3 day) was 4.6 meq/L. For the same compound, the LDH (72 h, time 3 day) was 113.2 IU/L, the Na (72 h, time 3 day) was 139.4 meq/L and the RALB (72 h, time 3 day) was 3.6 g/dL. The TBIL (72 h, time 3 day) was 0.3 mg/dL, the TC (72 h, time 3 day) was 73.4 mg/dL and the TG (72 h, time 3 day) was 66 mg/dL. The TP (72 h, time 3 day) was 5.8 g/dL, the gamma-GTP (72 h, time 3 day) was 1.8 IU/L and the TERMINAL_BW ([…], time 7 day) was 264.5 g. It also gave a TERMINAL_BW ([…], time 14 day) of 308 g, a TERMINAL_BW ([…], time 28 day) of 375.5 g and a Bas ([…], time 7 day) of 0%. For the same compound, the Eos ([…], time 7 day) was 0.8%, the Fbg ([…], time 7 day) was 232.6 mg/dL and the Hb ([…], time 7 day) was 14 g/dL. For the same compound, the Ht ([…], time 7 day) was 41.7%, the MCHC ([…], time 7 day) was 33.4% and the MCV ([…], time 7 day) was 63.4 fL. It also gave a Mono ([…], time 7 day) of 4.8%, a Neu ([…], time 7 day) of 9% and a Plat ([…], time 7 day) of 115.2 x10_4/uL. It also gave an RBC ([…], time 7 day) of 658 x10_4/ul, a Ret ([…], time 7 day) of 5.9% and a WBC ([…], time 7 day) of 129.4 x10_2/uL. For the same compound, the Bas ([…], time 14 day) was 0%, the Eos ([…], time 14 day) was 0.8% and the Fbg ([…], time 14 day) was 227.2 mg/dL. The Hb ([…], time 14 day) was 14.7 g/dL, the Ht ([…], time 14 day) was 44% and the MCHC ([…], time 14 day) was 33.4%. The MCV ([…], time 14 day) was 60.7 fL, the Mono ([…], time 14 day) was 2.8% and the Neu ([…], time 14 day) was 6%. For the same compound, the Plat ([…], time 14 day) was 121.9 x10_4/uL, the RBC ([…], time 14 day) was 726.2 x10_4/ul and the Ret ([…], time 14 day) was 3.5%. For the same compound, the WBC ([…], time 14 day) was 131.2 x10_2/uL, the Bas ([…], time 28 day) was 0% and the Eos ([…], time 28 day) was 1%. The Fbg ([…], time 28 day) was 225 mg/dL, the Hb ([…], time 28 day) was 15.6 g/dL and the Ht ([…], time 28 day) was 46.4%. The MCHC ([…], time 28 day) was 33.5%, the MCV ([…], time 28 day) was 56.7 fL and the Mono ([…], time 28 day) was 4.4%. It also gave a Neu ([…], time 28 day) of 7.6%, a Plat ([…], time 28 day) of 107.2 x10_4/uL and an RBC ([…], time 28 day) of 819 x10_4/ul. For the same compound, the Ret ([…], time 28 day) was 2%, the WBC ([…], time 28 day) was 119 x10_2/uL and the KIDNEY_L ([…], time 7 day) was 1.1 g. It also gave a KIDNEY_R ([…], time 7 day) of 1.1 g, a KIDNEY_TOTAL ([…], time 7 day) of 2.2 g and a KIDNEY_L ([…], time 14 day) of 1.2 g. The KIDNEY_R ([…], time 14 day) was 1.3 g, the KIDNEY_TOTAL ([…], time 14 day) was 2.5 g and the KIDNEY_L ([…], time 28 day) was 1.3 g. It also gave a KIDNEY_R ([…], time 28 day) of 1.3 g, a KIDNEY_TOTAL ([…], time 28 day) of 2.6 g and an LIVER ([…], time 7 day) of 12.2 g. It also gave an LIVER ([…], time 14 day) of 13.1 g, an LIVER ([…], time 28 day) of 14.5 g and an ALP ([…], time 7 day) of 835.8 IU/L. The AST ([…], time 7 day) was 65.4 IU/L, the BUN ([…], time 7 day) was 16.8 mg/dL and the CRE ([…], time 7 day) was 0.5 mg/dL. For the same compound, the DBIL ([…], time 7 day) was 0.016 mg/dL, the GLC ([…], time 7 day) was 193.4 mg/dL and the IP ([…], time 7 day) was 7.7 mg/dL. It also gave a K ([…], time 7 day) of 5.1 meq/L, an LDH ([…], time 7 day) of 96.6 IU/L and a Na ([…], time 7 day) of 138.8 meq/L. It also gave a PL ([…], time 7 day) of 156.2 mg/dL, an RALB ([…], time 7 day) of 3.8 g/dL and a TBIL ([…], time 7 day) of 0.3 mg/dL. For the same compound, the TC ([…], time 7 day) was 80.6 mg/dL, the TG ([…], time 7 day) was 120.4 mg/dL and the TP ([…], time 7 day) was 5.8 g/dL. For the same compound, the gamma-GTP ([…], time 7 day) was 1.8 IU/L, the ALP ([…], time 14 day) was 712.2 IU/L and the AST ([…], time 14 day) was 56.6 IU/L. For the same compound, the BUN ([…], time 14 day) was 18.6 mg/dL, the CRE ([…], time 14 day) was 0.5 mg/dL and the DBIL ([…], time 14 day) was 0.04 mg/dL. It also gave a GLC ([…], time 14 day) of 190.2 mg/dL, an IP ([…], time 14 day) of 7.7 mg/dL and a K ([…], time 14 day) of 4.9 meq/L. It also gave an LDH ([…], time 14 day) of 75.8 IU/L, a Na ([…], time 14 day) of 140 meq/L and a PL ([…], time 14 day) of 159.8 mg/dL. The RALB ([…], time 14 day) was 3.9 g/dL, the TBIL ([…], time 14 day) was 0.3 mg/dL and the TC ([…], time 14 day) was 77.4 mg/dL. It also gave a TG ([…], time 14 day) of 168.2 mg/dL, a TP ([…], time 14 day) of 6.1 g/dL and a gamma-GTP ([…], time 14 day) of 0.8 IU/L. The ALP ([…], time 28 day) was 548.6 IU/L, the AST ([…], time 28 day) was 59.4 IU/L and the BUN ([…], time 28 day) was 18.6 mg/dL. For the same compound, the CRE ([…], time 28 day) was 0.6 mg/dL, the DBIL ([…], time 28 day) was 0.016 mg/dL and the GLC ([…], time 28 day) was 187.8 mg/dL. For the same compound, the IP ([…], time 28 day) was 7.1 mg/dL, the K ([…], time 28 day) was 4.3 meq/L and the LDH ([…], time 28 day) was 84.8 IU/L. For the same compound, the Na ([…], time 28 day) was 141.2 meq/L, the PL ([…], time 28 day) was 146.8 mg/dL and the RALB ([…], time 28 day) was 4.1 g/dL. For the same compound, the TBIL ([…], time 28 day) was 0.3 mg/dL, the TC ([…], time 28 day) was 76.8 mg/dL and the TG ([…], time 28 day) was 121.4 mg/dL. The TP ([…], time 28 day) was 6.3 g/dL and the gamma-GTP ([…], time 28 day) was 1.6 IU/L.
